Source: patent publication US10669258B2, “3-sulfonyl-5-aminopyridine-2,4-diol APJ agonists” (BRISTOL-MYERS SQUIBB COMPANY, priority 2016, dated 2020)
Like-named read-outs stand apart in the source and are kept apart here.

Biological target: T1, human APJ receptor (Homo sapiens, UniProt P35414)
T1 construct: expressed in transfected cells; host or cells: HEK293
T1 sequence (P35414 1-380): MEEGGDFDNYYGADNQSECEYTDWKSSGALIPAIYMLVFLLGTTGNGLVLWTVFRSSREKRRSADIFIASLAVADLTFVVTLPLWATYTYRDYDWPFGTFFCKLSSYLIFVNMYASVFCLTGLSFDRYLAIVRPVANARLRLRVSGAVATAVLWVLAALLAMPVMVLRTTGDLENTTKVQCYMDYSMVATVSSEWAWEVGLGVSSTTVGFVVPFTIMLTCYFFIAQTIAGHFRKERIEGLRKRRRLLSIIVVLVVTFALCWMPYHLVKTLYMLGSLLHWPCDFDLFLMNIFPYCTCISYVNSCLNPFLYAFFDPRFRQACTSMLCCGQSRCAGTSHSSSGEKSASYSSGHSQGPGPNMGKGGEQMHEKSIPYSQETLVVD
Assay: Intracellular cAMP accumulation assay (APJ hcAMP, HTRF)
Format: cell-based
Conditions: HEK293 cells stably expressing human APJ receptor, inhibition of forskolin-mediated cAMP production
Procedure, shortened: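 HEK293 cells stably expressing the receptor (5,000/well) treated with compound plus […] and 2 μM forskolin for 30 min at room temperature; cAMP by HTRF against a cAMP standard curve. EC50 from variable-slope sigmoidal fit; Ymax as % of (Pyr1)apelin-13 inhibition.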

[1] = Table 1, read-out: hAPJ cAMP EC50 Potency range

Row | SMILES | EC50 [1] [nM] | other results
1 | CCN(c1ccccc1)c1c(CC2CC2)nc(O)c(S(=O)(=O)c2ccc(-c3ccnc(F)c3C)cc2)c1O [Example 049, 6-(cyclopropylmethyl)-5-(ethyl(phenyl)amino)-3-((4-(2-fluoro-3-methylpyridin-4-yl)phenyl)sulfonyl)pyridine-2,4-diol] | 0.01 to 10 | –
2 | CCN(c1ccccc1)c1c(-c2ccn(C)n2)nc(O)c(C(=O)N2CCC(c3ncc(F)cc3F)C2)c1O (stereo not drawn) [Example 197, (3-(3,5-difluoropyridin-2-yl)pyrrolidin-1-yl)(5-(ethyl(phenyl)amino)-2,4-dihydroxy-6-(1-methyl-1H-pyrazol-3-yl)pyridin-3-yl)methanone] | – | EC50 (hAPJ cAMP EC50 Potency range, Table 2): 0.01 to 10 nM
3 | CCN(c1ccccc1)c1c(-c2ccn(C)n2)nc(O)c(S(=O)(=O)c2ccc(-c3ccccc3C(=O)N(C)C)cc2)c1O [Example 060, 4′-((5-(ethyl(phenyl)amino)-2,4-dihydroxy-6-(1-methyl-1H-pyrazol-3-yl)pyridin-3-yl)sulfonyl)-N,N-dimethyl-[1,1′-biphenyl]-2-carboxamide] | 0.01 to 10 | –
4 | CCCCc1nc(O)c(S(=O)(=O)c2ccc(-c3cccnc3C)cc2)c(O)c1N1CCCc2ccccc21 [Example 024, 6-butyl-5-(3,4-dihydroquinolin-1(2H)-yl)-3-((4-(2-methylpyridin-3-yl)phenyl)sulfonyl)pyridine-2,4-diol] | 0.01 to 10 | –
5 | CCN(c1ccccc1)c1c(CC2CC2)nc(O)c(S(=O)(=O)c2ccc(-c3cccnc3C)cc2)c1O [Example 050, 6-(cyclopropylmethyl)-5-(ethyl(phenyl)amino)-3-((4-(2-methylpyridin-3-yl)phenyl)sulfonyl)pyridine-2,4-diol] | 0.01 to 10 | –
6 | CCCCc1nc(O)c(S(=O)(=O)c2ccc(-c3ccncc3C)cc2)c(O)c1N(C)c1cccc(F)c1 [Example 104, 6-butyl-5-((3-fluorophenyl)(methyl)amino)-3-((4-(3-methylpyridin-4-yl)phenyl)sulfonyl)pyridine-2,4-diol] | 0.01 to 10 | –
7 | CCCCc1nc(O)c(S(=O)(=O)c2ccc(-c3ccnc(F)c3C)cc2)c(O)c1N(C)c1ccc(OC)cc1 [Example 038, 6-butyl-3-((4-(2-fluoro-3-methylpyridin-4-yl)phenyl)sulfonyl)-5-((4-methoxyphenyl)(methyl)amino)pyridine-2,4-diol] | 0.01 to 10 | –
8 | CCCCc1nc(O)c(S(=O)(=O)c2ccc(-n3cc(C)ccc3=O)cc2)c(O)c1N(CC)c1ccccc1 [Example 003, 1-(4-((6-butyl-5-(ethyl(phenyl)amino)-2,4-dihydroxypyridin-3-yl)sulfonyl)phenyl)-5-methylpyridin-2(1H)-one] | – | EC50 (read-out: Human APJ cAMP Potency range): 0.01 to 10 nM
9 | CCCCc1nc(O)c(S(=O)(=O)c2ccc(-c3ccccc3COC)cc2)c(O)c1N(CC)c1ccccc1 [Example 087, 6-butyl-5-(ethyl(phenyl)amino)-3-((2′-(methoxymethyl)-[1,1′-biphenyl]-4-yl)sulfonyl)pyridine-2,4-diol] | 0.01 to 10 | –

More lines, main results first:

Row | EC50 [1] [nM] | SMILES | other results
10 | 0.01 to 10 | CCN(c1ccccc1)c1c(-c2cnn(C)c2)nc(O)c(S(=O)(=O)c2ccc(-c3cccnc3C)cc2)c1O [Example 150, 5-(ethyl(phenyl)amino)-6-(1-methyl-1H-pyrazol-4-yl)-3-((4-(2-methylpyridin-3-yl)phenyl)sulfonyl)pyri-dine-2,4-diol] | –
11 | 0.01 to 10 | CCCCc1nc(O)c(S(=O)(=O)c2ccc(-c3ccccc3C(=O)N(C)C)cc2)c(O)c1N(C)c1ccccc1F [Example 171, 4′-((6-butyl-5-((2-fluorophenyl)(methyl)a-mino)-2,4-dihydroxypyridin-3-yl)sulfonyl)-N,N-dimethyl-[1,1′-biphenyl]-2-carboxamide] | –
12 | 10 to 100 | CCN(c1ccccc1)c1c(-c2cccc(C)c2)nc(O)c(S(=O)(=O)c2ccc(Br)cc2)c1O [Example 131, 3-((4-bromophenyl)sulfonyl)-5-(ethyl(phenyl)amino)-6-(m-tolyl)pyridine-2,4-diol] | –
13 | 0.01 to 10 | CCCCc1nc(O)c(S(=O)(=O)c2ccc(-c3ccccc3C(=O)NC)cc2)c(O)c1N(C)c1ccccc1C [Example 206, 4′-((6-butyl-2,4-dihydroxy-5-(methyl(o-tolyl)amino)pyridin-3-yl)sulfonyl)-N-methyl-[1,1′-biphenyl]-2-carboxamide] | –
14 | 0.01 to 10 | CCN(c1ccccc1)c1c(-c2cnc(C)s2)nc(O)c(S(=O)(=O)c2ccc(-c3ccccc3C(=O)NC3CC3)cc2)c1O [Example 189, N-cyclopropyl-4′-((5-(ethyl(phenyl)amino)-2,4-dihydroxy-6-(2-methylthiazol-5-yl)pyridin-3-yl)sulfonyl)-[1,1′-biphenyl]-2-carboxamide] | –
15 | 10 to 100 | Cc1c(-c2ccc(S(=O)(=O)c3c(O)nc(-c4ccn(C)n4)c(N4CC(C)(C)c5ccccc54)c3O)cc2)ccnc1F [Example 160, 5-(3,3-dimethylindolin-1-yl)-3-((4-(2-fluoro-3-methylpyridin-4-yl)phenyl)sulfonyl)-6-(1-methyl-1H-pyrazol-3-yl)pyridine-2,4-diol] | –
